Results reported in US20230096380A1, “COMPOUNDS, COMPOSITIONS, METHODS FOR TREATING DISEASES AND NERVE DAMAGE, AND METHODS FOR PREPARING COMPOUNDS” (CHILDREN'S HOSPITAL MEDICAL CENTER, priority 2020, published 2023).
Entries after “also recorded” stand apart in the source; their conditions may differ.

Key:
p300 = target: T1, p300 (Rattus norvegicus, UniProt A0ABK0LGW0); test: p300 activity inhibition (FIG. 2)
T1 construct: Isolated rat OPCs were grown in Sato growth medium; endogenous in cells; host or cells: primary rat oligodendrocyte progenitor cells (OPCs) from newborn rat brain
T1 sequence (A0ABK0LGW0 1-2423): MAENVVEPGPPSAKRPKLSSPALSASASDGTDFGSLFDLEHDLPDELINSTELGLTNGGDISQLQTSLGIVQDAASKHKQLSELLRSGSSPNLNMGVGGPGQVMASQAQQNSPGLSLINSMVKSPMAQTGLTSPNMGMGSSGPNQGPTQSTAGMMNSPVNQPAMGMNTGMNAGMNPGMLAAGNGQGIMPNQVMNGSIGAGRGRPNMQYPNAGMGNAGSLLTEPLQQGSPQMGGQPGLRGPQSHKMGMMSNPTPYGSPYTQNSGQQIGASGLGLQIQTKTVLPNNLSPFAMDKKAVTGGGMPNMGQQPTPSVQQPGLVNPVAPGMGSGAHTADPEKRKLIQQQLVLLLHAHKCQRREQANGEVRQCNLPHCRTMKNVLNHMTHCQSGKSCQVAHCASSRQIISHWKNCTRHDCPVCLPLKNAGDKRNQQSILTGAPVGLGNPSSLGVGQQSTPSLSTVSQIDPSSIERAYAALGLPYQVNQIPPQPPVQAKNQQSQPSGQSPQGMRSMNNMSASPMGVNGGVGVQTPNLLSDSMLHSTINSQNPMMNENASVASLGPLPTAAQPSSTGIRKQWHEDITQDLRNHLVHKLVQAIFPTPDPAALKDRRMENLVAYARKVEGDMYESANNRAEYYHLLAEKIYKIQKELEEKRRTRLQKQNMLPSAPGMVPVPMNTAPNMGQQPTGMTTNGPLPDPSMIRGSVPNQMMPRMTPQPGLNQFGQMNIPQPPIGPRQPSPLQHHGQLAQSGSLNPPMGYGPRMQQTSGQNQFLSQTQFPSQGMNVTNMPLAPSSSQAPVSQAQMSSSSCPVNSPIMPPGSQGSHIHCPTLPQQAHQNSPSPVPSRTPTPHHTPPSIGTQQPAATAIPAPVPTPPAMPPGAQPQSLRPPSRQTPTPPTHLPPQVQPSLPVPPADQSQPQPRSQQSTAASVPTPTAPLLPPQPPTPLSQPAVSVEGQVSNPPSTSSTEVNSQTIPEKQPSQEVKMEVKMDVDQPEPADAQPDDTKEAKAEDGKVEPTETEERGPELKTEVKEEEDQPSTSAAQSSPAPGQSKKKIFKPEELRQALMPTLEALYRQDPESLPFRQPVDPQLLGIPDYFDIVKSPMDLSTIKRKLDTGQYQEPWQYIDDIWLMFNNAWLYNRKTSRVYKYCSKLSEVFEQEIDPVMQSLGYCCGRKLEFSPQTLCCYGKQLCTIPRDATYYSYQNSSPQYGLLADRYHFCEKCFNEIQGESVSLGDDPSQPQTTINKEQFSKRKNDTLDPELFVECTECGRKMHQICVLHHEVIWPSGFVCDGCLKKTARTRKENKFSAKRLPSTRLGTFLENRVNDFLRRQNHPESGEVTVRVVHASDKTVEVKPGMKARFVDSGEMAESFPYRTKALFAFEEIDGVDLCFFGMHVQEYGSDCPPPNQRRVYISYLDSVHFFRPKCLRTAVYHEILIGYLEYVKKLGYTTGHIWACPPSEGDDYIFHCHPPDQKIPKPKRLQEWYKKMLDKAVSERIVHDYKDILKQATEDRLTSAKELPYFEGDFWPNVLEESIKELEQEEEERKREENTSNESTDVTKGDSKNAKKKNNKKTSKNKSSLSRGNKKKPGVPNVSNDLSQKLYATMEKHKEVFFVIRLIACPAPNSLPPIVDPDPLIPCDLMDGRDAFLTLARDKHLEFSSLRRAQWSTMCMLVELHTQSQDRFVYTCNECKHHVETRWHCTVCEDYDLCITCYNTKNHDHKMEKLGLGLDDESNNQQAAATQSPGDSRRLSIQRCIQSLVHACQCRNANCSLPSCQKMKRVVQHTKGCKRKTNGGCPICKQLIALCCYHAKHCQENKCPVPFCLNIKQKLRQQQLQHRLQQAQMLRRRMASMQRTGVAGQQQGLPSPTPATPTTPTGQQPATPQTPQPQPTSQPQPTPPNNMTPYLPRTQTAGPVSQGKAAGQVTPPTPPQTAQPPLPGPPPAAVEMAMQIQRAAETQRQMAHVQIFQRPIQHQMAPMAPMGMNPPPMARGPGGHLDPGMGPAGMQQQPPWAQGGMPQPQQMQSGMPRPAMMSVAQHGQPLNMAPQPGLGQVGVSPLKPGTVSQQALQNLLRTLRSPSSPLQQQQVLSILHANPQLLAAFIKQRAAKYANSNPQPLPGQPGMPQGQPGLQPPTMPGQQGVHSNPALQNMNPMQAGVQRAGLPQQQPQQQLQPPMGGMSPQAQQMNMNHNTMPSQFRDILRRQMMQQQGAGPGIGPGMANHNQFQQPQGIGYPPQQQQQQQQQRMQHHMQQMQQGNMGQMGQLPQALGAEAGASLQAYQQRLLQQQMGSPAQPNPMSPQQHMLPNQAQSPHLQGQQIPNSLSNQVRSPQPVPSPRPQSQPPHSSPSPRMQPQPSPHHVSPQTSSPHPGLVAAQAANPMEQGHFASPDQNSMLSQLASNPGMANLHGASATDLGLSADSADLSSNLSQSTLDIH

[1] = test system: Primary oligodendrocyte progenitor cells (OPCs); test: Rat primary OPC differentiation, immunostaining for MBP, OLIG2 and/or cleaved Caspase 3 (FIGS. 1-6); type: cell-based
Source text: FIGS. 1-6. Primary oligodendrocyte progenitor cells (OPCs) were obtained from newborn rat brains after preparation of mixed glial cultures. This method generally follows that found in ZHAO et al. (2018) “Dual Requirement of CHD8 for Chromatin Landscape Establishment and Histone Methyltransferase Recruitment to Promote CNS Myelination and Repair” Dev Cell, Vol. 45, pp. 753-768. Briefly, mixed glial cells were initially cultured in DMEM-F12 medium supplied with 15% FBS, then switched to B104 conditioned medium for 2 days before isolating OPCs by mechanical detachment in an orbital shaker. Isolated rat OPCs were grown in Sato growth medium supplemented with mitogens 10 ng/ml PDGF-AA and 10 ng/ml bFGF. OPCs were then treated with indicated compounds and immunostained with oligodendrocyte myelination markers MBP and OLIG2, and/or a cell death marker cleaved Caspase 3. T3 ((2S)-2-amino-3-[4-(4-hydroxy-3-iodophenoxy)-3,5-diiodophenyl]propanoic acid; CAS 6893-02-3) was used as a positive control; the T3 concentration used was 15 nm.

[2] = test system: experimental autoimmune encephalomyelitis (EAE) demyelinating mouse model; test: EAE demyelinating mouse model induced by myelin peptide MOG35-55 (FIG. 7); type: in vivo; conditions: EAE mice
Source text: FIG. 7. This method generally follows that found in WANG et al. (2017) “miR-219 Cooperates with miR-338 in Myelination and Promotes Myelin Repair in the CNS” Dev Cell, Vol. 40, pp. 566-582.

EAE mice = test: Visual evoked potential (VEP) analyses on EAE mice (FIG. 17); type: in vivo; conditions: EAE mice at the peak of disease, versus Vehicle
Description: FIG. 17. Visual evoked potential (VEP) analyses were carried out on EAE mice treated with Vehicle and compound I-1 at the peak of disease. This method generally follows that found in YOU et al. (2011) “Latency delay of visual evoked potential is a real measurement of demyelination in a rat model of optic neuritis” Invest Ophthalmol Vis Sci, Vol. 52, pp. 6911-6918.

[3] = test system: Rat oligodendrocyte progenitor cells (OPCs); test: Rat OPC differentiation, MBP and Olig2 immunostaining after 48 h treatment (FIG. 18); type: cell-based; conditions: for OPC differentiation (MBP, Olig2 immunostaining): at the indicated concentration
Description: FIG. 18. Methods: This method generally follows that found in WANG et al. (2017) “miR-219 Cooperates with miR-338 in Myelination and Promotes Myelin Repair in the CNS” Dev Cell, Vol. 40, pp. 566-582. Rat oligodendrocyte progenitor cells (OPCs) were seeded on coverslip and treated with compounds, I-1, I-16, I-15, I-13, I-8, and I-17 at the indicated concentration. Cells were immunostained with a mature oligodendrocyte marker MBP and an oligodendrocyte lineage marker Olig2 after 48 h treatment.

## CNC(=O)Nc1ccc2c(c1)CC[C@@]21OC(=O)N(CC(=O)N(Cc2ccc(F)cc2)[C@@H](C)C(F)(F)F)C1=O [Compound A485]
p300
  p300 activity: inhibits p300 activity

## Nc1ccccc1NC(=O)c1cnc(NCc2ccccc2)cn1 [Compound I-1]
[1]; 3 days after treatment, FIG. 6
  myelin MBP+ cell formation 3 days after treatment: enhances myelin MBP+ cell formation
[1]; FIG. 5
  myelin MBP+ cell formation: enhances myelin MBP+ cell formation
[1]; rat OPCs, MBP/OLIG2 immunostaining, FIGS. 1-6
  oligodendrocyte differentiation and myelination in vitro: promoted oligodendrocyte differentiation and myelination in vitro
[1]; rat primary OPCs, FIGS. 1, 3, 4
  OPC differentiation: promotes oligodendrocyte progenitor cell (OPC) differentiation
[1]; with p300 inhibitor A485, FIG. 2
  myelin formation in presence of A485: appears to overcome A485 inhibition to enhance myelin formation
[2]
  functional regeneration: promotes functional regeneration
[2]; MOG35-55 induced
  EAE disease severity / motor function (clinical scores): improved motor function reflected in clinical scores; also recorded: reduced EAE disease severity
EAE mice
  VEP N1 signals: showed greater and faster conducting VEP N1 signals
[3]
  OPC differentiation (MBP, Olig2 immunostaining): promote OPC differentiation

## Nc1ccccc1NC(=O)c1cnc(NC(c2ccccc2)c2ccccc2)cn1 [Compound I-8]
[3]
  activity in promoting OPC into mature oligodendrocytes relative to compound I-1: comparable activity with compound I-1
  OPC differentiation (MBP, Olig2 immunostaining): promote OPC differentiation

## Nc1ccccc1NC(=O)c1cnc(NC(=O)C(c2ccccc2)c2ccccc2)cn1 [Compound I-13]
[3]
  OPC differentiation (MBP, Olig2 immunostaining): promote OPC differentiation

## Nc1ccccc1NC(=O)c1cnc(NC2=N[C@H](c3ccccc3)[C@H](c3ccccc3)O2)cn1 [Compound I-15]
[3]
  OPC differentiation (MBP, Olig2 immunostaining): promote OPC differentiation

## CC(C(=O)Nc1cnc(C(=O)Nc2ccccc2N)cn1)c1ccccc1 (centres unmarked) [Compound I-16]
[3]
  OPC differentiation (MBP, Olig2 immunostaining): promote OPC differentiation

## Nc1ccccc1NC(=O)c1cnc(NC(=O)C(N)c2ccccc2)cn1 (centres unmarked) [Compound I-17]
[3]
  activity in promoting OPC into mature oligodendrocytes relative to compound I-1: comparable activity with compound I-1
  OPC differentiation (MBP, Olig2 immunostaining): promote OPC differentiation
